The results in this text go back to paper PMC9020739, “Identification of a two-component regulatory system involved in antimicrobial peptide resistance in Streptococcus pneumoniae” (PLoS Pathogens, 2022).

Common to all, as to type: cell-based, Streptococcus pneumoniae
Assay [1] concerns S. pneumoniae D39 WT. Particulars: D39 strain. Here is the method:
(§1) The MIC of various antimicrobial peptides for R6, R800 and D39 strains was determined by classical 2-fold broth dilution method. Cells were first grown in Todd-Hewitt medium at 37°C without agitation and in anaerobic conditions until the absorbance reaches approximatively 0.3. Complementation strains were grown with 0.5 μM ComS inducer until the appropriate OD. Cells were then diluted at final OD600nm = 0.002 in 96-well plates containing 300 μL of Todd-Hewitt medium (and 2 μM ComS inducer for the complementation strains) with serial dilutions of antimicrobial peptides. Pneumococcal growth was monitored by a microplate reader (TECAN) at 37°C without agitation. The absorbance was followed at 600 nm every 15 min for 15 h.

Assay [2] relates to S. pneumoniae D39 ΔbceAB/tcs01. The note with it: D39 strain; 2-fold broth dilution, Todd-Hewitt medium, 37°C, 15 h; two to four biological replicates, each technical duplicates. The method, then:
as §1
For orientation: Broth dilution looks for growth in wells or tubes with falling amounts of substance.

For assay [3], the system named is S. pneumoniae D39 ΔbceAB. The note with it: D39 strain; 2-fold broth dilution, Todd-Hewitt medium, 37°C, 15 h; two to four biological replicates, each technical duplicates. The method, then:
as §1

Assay [4] has as its system S. pneumoniae D39 Δtcs01. The note with it: D39 strain; 2-fold broth dilution, Todd-Hewitt medium, 37°C, 15 h; two to four biological replicates, each technical duplicates. Here is the method:
as §1

For assay [5], the system named is S. pneumoniae R6 WT. Particulars: R6 strain. The method, then:
as §1

For assay [6], the system named is S. pneumoniae R6 ΔbceAB/tcs01. The note with it: R6 strain; 2-fold broth dilution, Todd-Hewitt medium, 37°C, 15 h; two to four biological replicates, each technical duplicates. The method, then: as §1
Assay [7] deals with S. pneumoniae R6 ΔbceAB. The note with it: R6 strain; 2-fold broth dilution, Todd-Hewitt medium, 37°C, 15 h; two to four biological replicates, each technical duplicates. Here is the method: as §1
Assay [8] concerns S. pneumoniae R6 Δtcs01. Particulars: R6 strain; 2-fold broth dilution, Todd-Hewitt medium, 37°C, 15 h; two to four biological replicates, each technical duplicates. The method, then:
as §1

The test system of assay [9] is S. pneumoniae R800 WT. The note with it: R800 strain; 2-fold broth dilution, Todd-Hewitt medium, 37°C, 15 h; at least biological triplicates, each technical duplicates. Here is the method:
as §1

Assay [10] has as its system S. pneumoniae R800 bceAB-gfp. Particulars: R800 strain; 2-fold broth dilution, Todd-Hewitt medium, 37°C, 15 h; at least biological triplicates, each technical duplicates. The method, then:
as §1

For assay [11], the system named is S. pneumoniae R800 ΔbceAB-Δhk01-PcomX-hk01. Particulars: R800 complementation strain, 2 μM ComS inducer; 2-fold broth dilution, Todd-Hewitt medium, 37°C, 15 h; at least biological triplicates, each technical duplicates. The method, then: as §1
Assay [12] relates to S. pneumoniae R800 ΔbceAB. Particulars: R800 strain; 2-fold broth dilution, Todd-Hewitt medium, 37°C, 15 h; at least biological triplicates, each technical duplicates. The method, then:
as §1

The test system of assay [13] is S. pneumoniae R800 Δhk01-PcomX-hk01. Here is the method: as §1
Assay [14] relates to S. pneumoniae R800 Δhk01. The note with it: R800 strain; 2-fold broth dilution, Todd-Hewitt medium, 37°C, 15 h; at least biological triplicates, each technical duplicates. Here is the method: as §1
Assay [15] deals with bceAB and tcs01 genes in S. pneumoniae D39 WT. Description: Quantification of gene expression by qPCR. Particulars: D39 wild-type, bacitracin 1 μg/ml for 5, 15 and 30 min, relative to untreated control. The method, then:
(§2) S. pneumoniae D39 WT and Δtcs01 strains were routinely grown to OD600nm = 0.3 in THY. Then 1 μg/mL of bacitracin was added to the growth media for up to 30 min. Samples were taken at time points shown in the results section. Next, the cultures were mixed with RNA protect (Qiagen) at 1:1 ratio and incubated at room temperature for 5 min and centrifuged for 10 min at 3, 200 g at 4°C. The supernatant was decanted and the pellet was stored at -80°C. The bacteria were resuspended in 100 μL of sterile Tris-EDTA (TE), containing 15 mg/mL lysozyme (Sigma) then 20 μL of Proteinase K (20 mg/mL) (Roche) were added. The sample was vortexed 5 times for 10 sec at two-minutes intervals. Then 350 μL of lysis buffer from the Nucleospin RNA kit (Macherey-Nagel) were added to the sample with 3.5 μL of β-mercaptoethanol and 25 mg of glass beads (Sigma). The cells were lysed by continual vortexing for 5 min. The mRNA was extracted according to the manufacturer’s instructions. After elution, RNA samples were incubated with 5 μL of DNAse for 20 min at room temperature, then inactivated by heating for 70°C for 5 min. RNA concentration was measured using Nanovue (GE Healthcare). For cDNA synthesis 1 μg of RNA was generally used with the SuperScript III kit (Invitrogen) containing a reverse transcriptase, a set of primers, dNTPs, MgCl2 random hexamers and […] after the cDNA generation according to manufacturer’s instructions. Samples were then stored at -20°C. qPCR measurements were done with 2.5 μL of cDNA mixed with 1 μL (3 μM final) of forward and reverse primers, 5 μL iQ SYBR Green Supermix (BioRad) and 0.5 μL water using the CFX Connect Optical Module (BioRad) program as follows: 95°C for 3 min, then a repeat 40 times of 95°C for 10 sec, 55°C for 30 sec, and a fluorescence reading.
A general note: Quantitative PCR measures a nucleic acid by following its amplification.

Assay [16] deals with bceAB genes in S. pneumoniae D39 Δtcs01. In words: Quantification of gene expression by qPCR. The note with it: D39 Δtcs01 knockout; bacitracin 1 μg/ml. Here is the method: as §2

Converted amounts (≈) assume the structure as drawn. Where a SMILES comes first, the peptide text is derived from it. Bridges are numbered along the chain shown (N, C = ends). [ ]: non-standard residue; d: D form. The star is where a group is joined. Ileψ(thiazoline)Cys = CC[C@H](C)[C@H](N)C1=N[C@H](C(=O)*)CS1; dOrn = NCCC[C@@H](N)C(=O)O

Regarding `CC[C@H](C)[C@H](N)C1=N[C@H](C(=O)N[C@@H](CC(C)C)C(=O)N[C@H](CCC(=O)O)C(=O)N[C@H](C(=O)N[C@H]2CCCCNC(=O)[C@H](CC(N)=O)NC(=O)[C@@H](CC(=O)O)NC(=O)[C@H](Cc3cnc[nH]3)NC(=O)[C@@H](Cc3ccccc3)NC(=O)[C@H]([C@@H](C)CC)NC(=O)[C@@H](CCCN)NC2=O)[C@@H](C)CC)CS1` [bacitracin] ({Ileψ(thiazoline)Cys}-L[dE]IK[dOrn]I[dF]H[dD]N; lactam 4-C (inferred); N-terminus assumed), the “Minimum Inhibitory Concentration, WT” value in assay [1] (2-fold broth dilution, Todd-Hewitt medium, 37°C, 15 h, two to four biological replicates, each technical duplicates) stood at 4 µg/mL; in [5] (2-fold broth dilution, Todd-Hewitt medium, 96-well plates, start OD600 0.002, 37°C, A600 followed 15 h, two to four biological replicates, each technical duplicates), 8 µg/mL. In addition, the “Fold sensitivity diplayed by the KO strains” value in [1] (KO strains versus WT MIC) worked out at 4. Moreover, the “Minimum Inhibitory Concentration, ΔbceAB/tcs01” value in assay [2] and in assay [6] was 1 µg/mL in each case. The “Minimum Inhibitory Concentration, ΔbceAB” value in [3] and in assay [7] was 1 µg/mL in each case. In addition, the “Minimum Inhibitory Concentration, Δtcs01” value in assay [4] and in [8] was 1 µg/mL throughout. For the same molecule, the “Fold sensitivity displayed by the KO strains” value in assay [5] (KO strains versus WT MIC) is 8. The “MIC, WT” value in assay [9] was determined as 4 µg/mL (≈ 2.81 µM). Also, the “MIC, bceAB-gfp” value in assay [10] came to 4 µg/mL (≈ 2.81 µM). The “MIC, ΔbceAB-Δhk01-PcomX-hk01” value in [11] turned out to be 1 µg/mL (≈ 0.703 µM). Further, the “MIC, ΔbceAB” value in assay [12] was determined as 1 µg/mL (≈ 0.703 µM). The “Resistance as compared to the WT strain” value in [13] (R800-Δhk01-PcomX-rr01-hk01 versus R800 WT, from MICs) amounted to 64 fold. In assay [13] (R800 complementation strain, 2 μM ComS inducer, 2-fold broth dilution, Todd-Hewitt medium, 37°C, 15 h, at least biological triplicates, each technical duplicates), the “MIC, Δhk01-PcomX-hk01” value amounted to 256 µg/mL (≈ 180 µM). In [14], the “MIC, Δhk01” value turned out to be 1 µg/mL (≈ 0.703 µM). In addition, the “Transcription of the tcs01 genes” value in [15] is reported as “unaffected”. Further, the entries for the “Transcription of the bceAB genes” value in [15] (n = 6-8) and in assay [16] were “strong upregulation” and “failed to upregulate”, respectively.
